Target: T1, α4β7 integrin interaction with MadCAM-1 (RPMI8866 cells) (Homo sapiens, UniProt P13612+P26010)
T1 construct: α4β7 integrin expressing cells; endogenous in cells; host or cells: RPMI8866 cells
T1 sequence (P13612 34-1032): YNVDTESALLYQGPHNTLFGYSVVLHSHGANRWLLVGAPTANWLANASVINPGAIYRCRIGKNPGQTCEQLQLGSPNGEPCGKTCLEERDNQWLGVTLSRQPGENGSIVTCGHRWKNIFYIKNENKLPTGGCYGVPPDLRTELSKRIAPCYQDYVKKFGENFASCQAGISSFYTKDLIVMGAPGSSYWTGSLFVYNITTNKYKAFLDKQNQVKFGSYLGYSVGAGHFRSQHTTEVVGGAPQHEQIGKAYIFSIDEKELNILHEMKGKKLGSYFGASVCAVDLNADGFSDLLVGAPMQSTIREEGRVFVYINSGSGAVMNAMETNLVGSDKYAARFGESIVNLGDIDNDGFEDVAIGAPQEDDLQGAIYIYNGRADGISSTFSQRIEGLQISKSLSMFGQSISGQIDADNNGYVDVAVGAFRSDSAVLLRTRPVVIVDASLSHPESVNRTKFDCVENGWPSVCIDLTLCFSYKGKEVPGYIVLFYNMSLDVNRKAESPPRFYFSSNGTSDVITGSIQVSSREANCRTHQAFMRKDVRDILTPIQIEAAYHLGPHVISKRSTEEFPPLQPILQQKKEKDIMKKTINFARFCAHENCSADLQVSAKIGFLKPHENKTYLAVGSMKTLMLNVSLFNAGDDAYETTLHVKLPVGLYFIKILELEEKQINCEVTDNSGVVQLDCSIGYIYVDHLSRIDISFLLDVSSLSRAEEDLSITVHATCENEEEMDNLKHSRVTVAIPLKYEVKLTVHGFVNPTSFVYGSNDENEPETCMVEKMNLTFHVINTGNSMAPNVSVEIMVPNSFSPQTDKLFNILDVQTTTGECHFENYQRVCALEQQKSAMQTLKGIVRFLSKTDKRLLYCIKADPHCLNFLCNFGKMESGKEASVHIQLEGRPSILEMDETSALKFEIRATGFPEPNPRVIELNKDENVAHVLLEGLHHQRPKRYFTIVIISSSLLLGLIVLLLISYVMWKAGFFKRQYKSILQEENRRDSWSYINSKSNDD
T1 sequence (P26010 20-798): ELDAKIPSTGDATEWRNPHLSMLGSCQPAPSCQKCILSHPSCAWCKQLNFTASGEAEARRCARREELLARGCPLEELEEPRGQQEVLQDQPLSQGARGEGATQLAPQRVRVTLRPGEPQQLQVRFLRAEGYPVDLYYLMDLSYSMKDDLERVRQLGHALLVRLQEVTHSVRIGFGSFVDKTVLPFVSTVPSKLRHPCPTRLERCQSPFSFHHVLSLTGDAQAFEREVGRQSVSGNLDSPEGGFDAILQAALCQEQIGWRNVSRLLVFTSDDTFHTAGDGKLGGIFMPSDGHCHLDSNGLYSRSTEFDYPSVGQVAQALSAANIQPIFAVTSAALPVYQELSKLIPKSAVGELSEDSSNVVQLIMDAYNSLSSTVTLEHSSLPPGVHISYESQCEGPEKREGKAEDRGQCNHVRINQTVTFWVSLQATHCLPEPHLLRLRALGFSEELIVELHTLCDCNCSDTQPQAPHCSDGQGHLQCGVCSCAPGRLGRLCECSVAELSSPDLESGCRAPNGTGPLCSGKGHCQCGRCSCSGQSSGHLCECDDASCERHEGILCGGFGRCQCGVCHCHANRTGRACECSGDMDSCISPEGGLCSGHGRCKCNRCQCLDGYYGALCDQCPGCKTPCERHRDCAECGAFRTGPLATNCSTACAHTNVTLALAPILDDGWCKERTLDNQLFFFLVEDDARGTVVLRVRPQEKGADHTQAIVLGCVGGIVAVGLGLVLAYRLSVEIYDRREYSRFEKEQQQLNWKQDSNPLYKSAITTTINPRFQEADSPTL
Assay: α4β7 Integrin Cell Capture Assay
Assay type: cell-based
Details: capture of α4β7 integrin expressing RPMI8866 cells on recombinant MadCAM-1 extracellular domain-coated plate; 0.5 mM MnCl2
Method in brief: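 RPMI8866 cells (0.5×10^6 cells/mL in DMEM + 0.5% FBS + 0.5 mM MnCl2) preincubated with compound 1 h at 37 °C, then allowed to adhere 30 min at 37 °C to plates coated with MAdCAM-1 extracellular domain (1.0 μg/mL). Bound cells fixed with 2% glutaraldehyde, Hoechst-stained, imaged and counted; EC50 from cell count versus concentration.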

EC50 [nM] | SMILES
0.374 | Cc1cc(N2CCOC[C@@H]2C(F)(F)F)cc(F)c1C(=O)N[C@@H](Cc1ccc(-c2c(C)ncn(C)c2=O)c2c1CCCO2)C(=O)O [Example 134]
0.094 | Cc1cc(N2CCOC[C@@H]2C(F)(F)F)cc(F)c1C(=O)N[C@@H](Cc1ccc(-c2c(C(F)(F)F)cc(C)n(C)c2=O)c2c1CCCO2)C(=O)O [Example 135]
0.964 | Cc1nc(-c2ccc(C[C@H](NC(=O)c3c(F)cc(N4C[C@H]5C[C@H]5[C@@H]4C(F)(F)F)cc3F)C(=O)O)c3c2OCCC3)c(=O)n(C)c1C [Example 138]
2 | Cc1cc(N2CCOC3(CC3)C2)cc(F)c1C(=O)N[C@@H](Cc1ccc(-c2nc(C)c(C)n(C)c2=O)c2c1CCCO2)C(=O)O [Example 139]
0.55 | COc1ccc(C)nc1-c1ccc(C[C@H](NC(=O)c2c(F)cc(N3CCOC[C@@H]3C(F)(F)F)cc2F)C(=O)O)c2c1OCCC2 [Example 140]
0.529 | Cc1c(Cl)cc(-c2ccc(C[C@H](NC(=O)c3c(F)cc(N4CCOC[C@@H]4C(F)(F)F)cc3F)C(=O)O)c3c2OCCC3)c(=O)n1C [Example 141]
0.25 | Cc1cc(N2CCOC[C@@H]2C(F)(F)F)cc(F)c1C(=O)N[C@@H](Cc1ccc(-c2cc(Cl)c(C)n(C)c2=O)c2c1CCCO2)C(=O)O [Example 142]
4.72 | Cc1nc(-c2ccc(C[C@H](NC(=O)c3c(F)cc(N4CCC(F)(F)C[C@H]4C(F)(F)F)cc3F)C(=O)O)c3c2OCCC3)c(=O)n(C)c1C [Example 143]
0.552 | Cc1nc(-c2ccc(C[C@H](NC(=O)c3c(F)cc(N4CCC(F)(F)C[C@@H]4C(F)(F)F)cc3F)C(=O)O)c3c2OCCC3)c(=O)n(C)c1C [Example 144]
0.714 | Cc1cc(N2CCOC[C@@H]2C(F)(F)F)cc(F)c1C(=O)N[C@@H](Cc1ccc(-c2c(N3CCC3)cc(C)n(C)c2=O)c2c1CCCO2)C(=O)O [Example 145]
0.416 | Cc1cc(N2CCOC[C@@H]2C(F)(F)F)cc(F)c1C(=O)N[C@@H](Cc1ccc(-c2c(C)c(C(F)(F)F)cn(C)c2=O)c2c1CCCO2)C(=O)O [Example 146]
2.42 | Cc1cc(N2CCOC[C@@H]2C(F)(F)F)cc(F)c1C(=O)N[C@@H](Cc1ccc(-c2cc(N(C)C)c(C)n(C)c2=O)c2c1CCCO2)C(=O)O [Example 147]
0.76 | Cc1cc(-c2ccc(C[C@H](NC(=O)c3c(F)cc(N4CCOC[C@@H]4C(F)(F)F)cc3F)C(=O)O)c3c2OCCC3)c(=O)n(C)n1 [Example 148]
0.715 | Cc1cc(N2CCCC[C@@H]2C(F)(F)F)cc(F)c1C(=O)N[C@@H](Cc1ccc(-c2nc(C)c(C)n(C)c2=O)c2c1CCCO2)C(=O)O [Example 149]
0.14 | Cc1nc(-c2ccc(C[C@H](NC(=O)c3c(F)cc(N4CCOC[C@@H]4C(F)(F)F)cc3Cl)C(=O)O)c3c2OCCC3)c(=O)n(C)c1C [Example 150]
0.144 | Cc1cc(N2CCOC[C@@H]2C(F)(F)F)cc(F)c1C(=O)N[C@@H](Cc1ccc(-c2c(C)c(C)c(C)n(C)c2=O)c2c1CCCO2)C(=O)O [Example 151]
0.358 | Cc1c(C)c(C)n(C)c(=O)c1-c1ccc(C[C@H](NC(=O)c2c(F)cc(N3CCOC[C@@H]3C(F)(F)F)cc2F)C(=O)O)c2c1OCCC2 [Example 154]
0.358 | Cc1cc(N2CCOC[C@@H]2C(F)(F)F)cc(F)c1C(=O)N[C@@H](Cc1ccc(-c2cc(C)c(C)n(C)c2=O)c2c1CCCO2)C(=O)O [Example 155]
0.84 | Cc1nc(-c2ccc(C[C@H](NC(=O)c3c(F)cc(N4CCCC[C@@H]4C(F)(F)F)cc3F)C(=O)O)c3c2OCCC3)c(=O)n(C)c1C [Example 156]

EC50 [nM] | SMILES
1.82 | Cc1nc(-c2ccc(C[C@H](NC(=O)c3c(F)cc(N4CCO[C@@H](C)C4)cc3F)C(=O)O)c3c2OCCC3)c(=O)n(C)c1C [Example 157]
0.502 | C=C1COCCN(c2cc(F)c(C(=O)N[C@@H](Cc3ccc(-c4nc(C)c(C)n(C)c4=O)c4c3CCCO4)C(=O)O)c(F)c2)C1 [Example 158]
0.226 | Cc1cc(C)n(C)c(=O)c1-c1ccc(C[C@H](NC(=O)c2c(F)cc(N3CCOC[C@@H]3C(F)(F)F)cc2Cl)C(=O)O)c2c1OCCC2 [Example 159]
0.189 | Cc1cc(N2CCOC[C@@H]2C(F)(F)F)cc(F)c1C(=O)N[C@@H](Cc1ccc(-c2c(C)cc(C)n(C)c2=O)c2c1CCCO2)C(=O)O [Example 160]
0.364 | Cc1cc(C)n(C)c(=O)c1-c1ccc(C[C@H](NC(=O)c2c(F)cc(N3CCOC[C@@H]3C(F)(F)F)cc2F)C(=O)O)c2c1OCCC2 [Example 161]
0.78 | Cc1cc(-c2ccc(C[C@H](NC(=O)c3c(F)cc(N4CCOC[C@@H]4C(F)(F)F)cc3F)C(=O)O)c3c2OCCC3)c(=O)n(C)c1C [Example 162]
0.731 | Cc1cn(C)c(=O)c(-c2ccc(C[C@H](NC(=O)c3c(C)cc(N4CCOC[C@@H]4C(F)(F)F)cc3F)C(=O)O)c3c2OCCC3)n1 [Example 163]
0.482 | CCc1nc(-c2ccc(C[C@H](NC(=O)c3c(F)cc(N4CCOC[C@@H]4C(F)(F)F)cc3F)C(=O)O)c3c2OCCC3)c(=O)n(C)c1CC [Example 164]
0.25 | Cc1cc(N2CCOC[C@@H]2C(F)(F)F)cc(F)c1C(=O)N[C@@H](Cc1ccc(-c2nc(C)c(C)n(C)c2=O)c2c1CCCO2)C(=O)O [Example 165]
0.195 | COc1cc(C)n(C)c(=O)c1-c1ccc(C[C@H](NC(=O)c2c(C)cc(N3CCOC[C@@H]3C(F)(F)F)cc2F)C(=O)O)c2c1OCCC2 [Example 166]
0.521 | Cc1cc(N2CCC2)c(-c2ccc(C[C@H](NC(=O)c3c(F)cc(N4CCOC[C@@H]4C(F)(F)F)cc3F)C(=O)O)c3c2OCCC3)c(=O)n1C [Example 167]
0.946 | Cc1cn(C)c(=O)c(-c2ccc(C[C@H](NC(=O)c3c(F)cc(N4CCOC[C@@H]4C(F)(F)F)cc3F)C(=O)O)c3c2OCCC3)n1 [Example 168]
0.356 | CCc1nc(-c2ccc(C[C@H](NC(=O)c3c(C)cc(N4CCOC[C@@H]4C(F)(F)F)cc3F)C(=O)O)c3c2OCCC3)c(=O)n(C)c1CC [Example 169]
0.14 | Cc1cc(N2CCOC[C@@H]2C(F)(F)F)cc(F)c1C(=O)N[C@@H](Cc1ccc(-c2cc3cnccc3n(C)c2=O)c2c1CCCO2)C(=O)O [Example 170]
0.201 | Cn1c(=O)c(-c2ccc(C[C@H](NC(=O)c3c(F)cc(N4CCOC[C@@H]4C(F)(F)F)cc3F)C(=O)O)c3c2OCCC3)cc2cnccc21 [Example 171]
0.056 | Cc1cc(N2CCOC[C@@H]2C(F)(F)F)cc(F)c1C(=O)N[C@@H](Cc1ccc(-n2c(=O)c3ccncc3n(C)c2=O)c2c1OCCO2)C(=O)O [Example 173]
0.205 | Cc1nc(-c2ccc(C[C@H](NC(=O)c3c(F)cc(N4CCOC[C@@H]4C(F)(F)F)cc3F)C(=O)O)c3c2OCCO3)c(=O)n(C)c1C [Example 175]
0.593 | Cc1ncc(-c2ccc(C[C@H](NC(=O)c3c(F)cc(N4CCOC[C@@H]4C(F)(F)F)cc3F)C(=O)O)c3c2OCCO3)c(=O)n1C [Example 177]
0.348 | Cc1cc(N2CCOC[C@@H]2C(F)(F)F)cc(F)c1C(=O)N[C@@H](Cc1ccc(-c2cnc(C)n(C)c2=O)c2c1OCCO2)C(=O)O [Example 178]

Source: patent US20220226337A1 (Gilead Sciences, Inc., priority 2018, published 2022)
